Laboratory results as given in patent publication US20060111556A1, “Preventives/remedies for neurodegenerative diseases” (priority 2002, published 2006).

What was measured:
[1] = system: neuronal cell death inducible putative kinase (NIPK) gene; test: NIPK gene expression analysis by oligonucleotide microarray after endoplasmic reticulum stress; type: cell-based; details: rat primary nerve cells, medial expression level taken as 1
Procedure: Rat primary nerve cells prepared from CD rat (Charles River Japan, Inc.) of TP-17 were suspended in B27-supplemented Neurobasal medium (NB medium: GIBCO) charged in a type I collagen-coated 24-well plate and then plated at 250,000 cells/well, followed by culturing for 3 days.
(i) Tunicamycin (Tnc) was added to the culture cells above in a final concentration of 100 nM, (ii) thapsigargin (Thap) was added to the culture cells above in a final concentration of 2 nM, or (iii) the culture cells described above were cultured in glucose-free B27-suplemented DMEM medium with 2 medium changes and then 2-deoxyglucose (2DG) was added in 3 mM. The total RNA was extracted from the cells 4, 8 and 24 hours, respectively, in accordance with the operating manual using RNeasy Mini kit (Qiagen). Cells added to the respective media (drug-free cells) in place of the drugs above (Tnc, Thap and 2DG) were used for control. Using the oligonucleotide microarray (Rat Genome U34A; Affymetrix Corp.), gene expression analysis was conducted on these materials.
The experimental method was carried out in accordance with the expression analysis technical manual of Affymetrix Corp. Gene expression profiles were compared between the cells stimulated with each drug and the cells with no drug. […] (TABLE 1).

[2] = system: NIPK gene; test: NIPK gene expression analysis by oligonucleotide microarray after β amyloid stimulation; type: cell-based; details: rat primary nerve cells, β amyloid 25 μM, 24 hours after stimulation, medial expression level taken as 1
Procedure: In order to examine if […] stimulation would affect the expression of NIPK gene with enhanced expression by endoplasmic reticulum stress, gene expression analysis was performed as in EXAMPLE 1, using cells stimulated with β amyloid.
Rat primary nerve cells prepared as in EXAMPLE 1 were suspended in N2-supplemented DMEM medium (GIBCO) and then plated at 250,000 cells/well, followed by incubation for 4 days. After the incubation, β amyloid suspended in the medium above in a final concentration of 25 μM was added to the medium. As in EXAMPLE 1, the total RNA was extracted from the cells 4, 8 and 24 hours after the addition and provided for gene analysis. For control, the cells to which the medium described above was added instead of β amyloid were used. Expression of NIPK was more enhanced in the cells stimulated with β, when compared to control (TABLE 2).

[3] = target: T1, Akt1 (Homo sapiens, UniProt P31749); test: Immunoprecipitation with anti-V5 antibody and western blotting with anti-Akt1 antibody; type: binding; details: V5-tagged NIPK and Akt1 co-expressed in COS7 cells; control GFP and Akt1
T1 construct: expressed in transfected cells; host or cells: COS7 cells
Procedure: Using human NIPK cloned into pCDNA3.1-/V5-His TOPO (Invitrogen) vector (EXAMPLE 3) as a template, PCR was carried out with synthetic primers (SEQ ID NO: 3 and SEQ ID NO: 23) and Pfu turbo (Stratagene) as an enzyme under the conditions (1)-(3) to obtain the specific PCR product. • (1) 94° C. for 5 minutes • (2) 94° C. for 30 seconds—60° C. for 30 seconds—72° C. for 1 minute, 25 time • (3) 72° C. for 5 minutes
The PCR product obtained was cloned into pCDNA3.1-/V5-His TOPO (Invitrogen) to transfect Escherichia coli DH5α. The resulting colony was cultured in LB medium to recover V5-tagged human NIPK gene expression vector.
Akt1 gene expression vector was prepared by the following procedures. Using Quick-clone human whole brain cDNA (Clontech) as a template, PCR was carried out with synthetic primers (SEQ ID NO: 24 and SEQ ID NO: 25) and Pfu turbo (Stratagene) as an enzyme under the conditions (1)-(3) below to obtain the specific PCR product. • (1) 94° C. for 5 minutes • (2) 94° C. for 30 seconds—58° C. for 30 seconds—72° C. for 2 minutes, 35 times • (3) 72° C. for 5 minutes […]

T1 sequence (P31749 whole entry): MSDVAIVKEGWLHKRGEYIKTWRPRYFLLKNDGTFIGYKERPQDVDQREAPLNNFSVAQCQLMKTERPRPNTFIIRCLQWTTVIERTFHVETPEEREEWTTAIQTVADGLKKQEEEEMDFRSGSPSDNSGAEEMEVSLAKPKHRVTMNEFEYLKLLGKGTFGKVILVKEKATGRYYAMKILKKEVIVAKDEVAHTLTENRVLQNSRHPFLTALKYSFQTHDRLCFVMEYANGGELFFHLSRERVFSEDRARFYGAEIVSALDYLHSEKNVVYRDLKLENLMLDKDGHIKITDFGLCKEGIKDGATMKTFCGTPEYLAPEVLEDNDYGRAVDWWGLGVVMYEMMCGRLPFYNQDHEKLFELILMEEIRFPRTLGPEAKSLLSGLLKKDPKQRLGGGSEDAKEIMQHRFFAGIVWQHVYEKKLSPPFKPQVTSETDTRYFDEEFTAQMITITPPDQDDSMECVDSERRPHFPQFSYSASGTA

O=CC[C@@H](O)[C@H](O)[C@H](O)CO [2DG, 2-deoxyglucose]
Gene Expression Level ([1]; glucose-free medium, 2-deoxyglucose 3 mM, 4 hours after addition): 0.72
Gene Expression Level ([1]; glucose-free medium, 2-deoxyglucose 3 mM, 8 hours after addition): 1.79
Gene Expression Level ([1]; glucose-free medium, 2-deoxyglucose 3 mM, 24 hours after addition): 2.45

C/C=C(/C)C(=O)O[C@H]1C(C)=C2[C@H]([C@@H]1OC(=O)CCCCCCC)[C@@](C)(OC(C)=O)C[C@H](OC(=O)CCC)[C@@]1(O)[C@H]2OC(=O)[C@@]1(C)O [Thap, thapsigargin]
Gene Expression Level ([1]; thapsigargin 2 nM, 4 hours after stimulation): 0.93
Gene Expression Level ([1]; thapsigargin 2 nM, 8 hours after stimulation): 2.70
Gene Expression Level ([1]; thapsigargin 2 nM, 24 hours after stimulation): 1.64

Tunicamycin [Tnc]
Gene Expression Level ([1]; tunicamycin 100 nM, 4 hours after stimulation): 0.41
Gene Expression Level ([1]; tunicamycin 100 nM, 8 hours after stimulation): 1.64
Gene Expression Level ([1]; tunicamycin 100 nM, 24 hours after stimulation): 1.32

β amyloid
Gene Expression Level [2]: 0.34

B1: NIPK: human neuronal cell death inducible putative kinase, amino acid sequence SEQ ID NO: 1; V5-tagged, expressed in COS7 cells (protein)
chain: MRATPLAAPAGSLSRKKRLELDDNLDTERPVQKRARSGPQPRLPPCLLPLSPPTAPDRATAVATASRLGPYVLLEPEEGGRAYQALHCPTGTEYTCKVYPVQEALAVLEPYARLPPHKHVARPTEVLAGTQLLYAFFTRTHGDMHSLVRSRHRIPEPEAAVLFRQMATALAHCHQHGLVLRDLKLCRFVFADRERKKLVLENLEDSCVLTGPDDSLWDKHACPAYVGPEILSSRASYSGKAADVWSLGVALFTMLAGHYPFQDSEPVLLFGKIRRGAYALPAGLSAPARCLVRCLLRREPAERLTATGILLHPWLRQDPMPLAPTRSHLWEAAQVVPDGLGLDEAREEEGDREVVLYG
modifications: V5 tag; Homo sapience
notes: V5-tagged, expressed in COS7 cells
binding to Akt1 within the cells [3]: bound to Akt1
